Test results reported in US6410792B1, “Amide derivatives and methods for using the same as selective neuropeptide Y receptor antagonists” (Bayer Corporation, priority 1997, dated 2002).
Counter-ions that a name gives are not always drawn. Like-named read-outs stand apart in the source and are kept apart here.

Key:
[1] = target: T1, Human NPY5 receptor (Homo sapiens, UniProt Q15761); experiment: Human NPY5 receptor binding assay ([125I]PYY, membrane protein); conditions: read-out: hNPY5 IC50
T1 sequence (Q15761 1-445): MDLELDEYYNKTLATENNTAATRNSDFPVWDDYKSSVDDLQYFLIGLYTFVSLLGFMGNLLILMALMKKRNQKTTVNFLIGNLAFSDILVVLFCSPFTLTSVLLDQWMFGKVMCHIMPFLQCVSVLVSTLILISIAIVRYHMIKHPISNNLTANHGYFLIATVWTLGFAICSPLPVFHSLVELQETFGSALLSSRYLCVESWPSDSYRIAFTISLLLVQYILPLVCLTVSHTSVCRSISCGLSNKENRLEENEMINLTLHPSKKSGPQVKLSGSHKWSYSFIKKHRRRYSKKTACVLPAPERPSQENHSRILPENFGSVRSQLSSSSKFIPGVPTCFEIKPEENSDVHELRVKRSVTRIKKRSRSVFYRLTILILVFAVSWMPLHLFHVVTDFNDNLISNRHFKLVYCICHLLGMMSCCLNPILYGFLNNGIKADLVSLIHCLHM
Summary of the method: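 Radioligand displacement: 75-100 pM [125I]PYY (porcine), membranes, drug dilution; 2 h, RT, mixing; 25 mM Tris pH 7.4 with 0.1% BSA, 0.5 mg/ml bacitracin. NSB 1 μM PYY. Filtration on PEI-treated GF/C, ice-cold buffer wash, gamma or scintillation counting.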

[2] = target: T2, Rat NPY5 receptor (Rattus norvegicus, UniProt Q63634); experiment: Rat NPY5 receptor binding assay ([125I]PYY, membrane protein); conditions: read-out: rNPY5 IC50
T2 sequence (Q63634 1-445): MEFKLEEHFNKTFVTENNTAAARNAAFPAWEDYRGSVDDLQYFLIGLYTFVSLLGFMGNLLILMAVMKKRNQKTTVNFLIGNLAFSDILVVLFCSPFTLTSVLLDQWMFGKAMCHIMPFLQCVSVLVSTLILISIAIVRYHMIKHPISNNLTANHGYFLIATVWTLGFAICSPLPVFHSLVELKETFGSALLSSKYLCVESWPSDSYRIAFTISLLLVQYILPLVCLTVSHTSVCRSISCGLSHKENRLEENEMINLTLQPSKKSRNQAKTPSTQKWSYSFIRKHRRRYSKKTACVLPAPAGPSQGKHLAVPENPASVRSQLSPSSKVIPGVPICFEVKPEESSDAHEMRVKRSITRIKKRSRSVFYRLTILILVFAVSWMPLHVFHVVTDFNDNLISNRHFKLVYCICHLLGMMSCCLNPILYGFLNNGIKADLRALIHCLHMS
Protocol: C. Human and Rat NPY5 Receptor Binding Assays
Binding assays are performed on GF/C Millipore 96well plates pretreated with 0.02% polyethylenimine. The binding buffer is 25 mM Tris, 120 mM NaCl, 5 mM KCl, 1.2 mM KH2PO4, 2.5 mM CaCl2, 1.2 mM MgSO4, 0.1% BSA and 0.5 mg/ml bacitracin, pH 7.4. Samples consist of membrane protein, 75-100 pM [125I]PYY (porcine, NEN-DuPont) and drug dilution. Nonspecific binding is defined by 1 μM PYY. After a 2 hour incubation at room temperature with constant mixing, the samples are aspirated on a vacuum manifold, and rinsed with ice-cold binding buffer. The amount of radioactivity in each well is quantitated with either gamma counting or liquid scintillation.

Molecule | IC50 ([1]; [125I]PYY binding) [nM] | IC50 ([2]; [125I]PYY binding) [nM] | IC50 ([1]; [125I]PYY) [nM] | IC50 ([2]; [125I]PYY) [nM]
N-{[(4-Cyclohexyl-phenylcarbamoyl)-methyl]-pyrrolidin-3-yl}-2,2,2-trifluoro-acetamide [Compound 197] | 21 | 20 | – | –
CC(=CC#N)NCC(=O)Nc1ccc(C2CCCCC2)cc1 [Compound 237, 2-(2-Cyano-1-methyl-vinylamino)-N-(4-cyclohexyl-phenyl)-acetamide] | 4400 | 1000 | – | –
C#CC(C)(C)NCC(=O)Nc1ccc(C2CCCCC2)cc1 [Compound 213, N-(4-Cyclohexyl-phenyl)-2-(1,1-dimethyl-prop-2-ynylamino)-acetamide] | 360 | 360 | – | –
O=C(CNCCCn1ccnc1)Nc1ccc(C2CCCCC2)cc1 [Compound 234, N-(4-Cyclohexyl-phenyl)-2-(3-imidazol-1-yl-propylamino)-acetamide] | 950 | 610 | – | –
O=C(CNCc1ccco1)Nc1ccc(C(=O)c2ccccc2)cc1 [Compound 166, N-(4-Benzoyl-phenyl)-2-[(furan-2-ylmethyl)-amino]-acetamide] | 610 | 730 | – | –
CC(C)(C)OC(=O)NC1CCN(CC(=O)Nc2ccc(C(=O)c3ccccc3)cc2)C1 (stereo not drawn) [Compound 205, {1-[(4-Benzoyl-phenylcarbamoyl)-methyl]-pyrrolidin-3-yl}-carbamic acid tert-butyl ester] | 72 | 71 | – | –
CN(C(=O)OC(C)(C)C)C1CCN(CC(=O)Nc2ccc(C3CCCCC3)cc2)C1 (stereo not drawn) [Compound 215, {1-[(4-Cyclohexyl-phenylcarbamoyl)-methyl]-pyrrolidin-3-yl)-methyl-carbamic acid tert-butyl ester] | 170 | 300 | – | –
COC(CNCC(=O)Nc1ccc(C(=O)c2ccccc2)cc1)OC [Compound 5, N-(4-Benzoyl-phenyl)-2-(2,2-dimethoxy-ethylamino)-acetamide] | 300 | 300 | – | –
O=C(CNCCO)Nc1ccc(C2CCCCC2)cc1 [Compound 176, N-(4-Cyclohexyl-phenyl)-2-(2-hydroxy-ethylamino)-acetamide] | > 10000 | > 10000 | – | –
O=C(CNc1c(I)cc(C(=O)O)cc1I)Nc1ccc(C(=O)c2ccccc2)cc1 [Compound 171, 4-{[(4-Benzoyl-phenylcarbamoyl)-methyl]-amino)-3,5-diiodo-benzoic acid] | 530 | 1200 | – | –
O=C(CN1CCC(CO)CC1)Nc1ccc(C2CCCCC2)cc1 [Compound 200, N-(4-Cyclohexyl-phenyl)-2-(4-hydroxymethyl-piperidin-1-yl)-acetamide] | 530 | 340 | – | –
COC(=O)C=C(C)NCC(=O)Nc1ccc(C2CCCCC2)cc1 [Compound 238, 3-{[(4-Cyclohexyl-phenylcarbamoyl)-methyl]-amino}-but-2-enoic acid methyl ester] | 650 | 550 | – | –
CNC1CCN(CC(=O)Nc2ccc(C(=O)c3ccccc3)cc2)C1 (stereo not drawn) [Compound 203, N-(4-Benzoyl-phenyl)-2-(3-methylamino-pyrrolidin-1-yl)-acetamide] | 200 | 180 | – | –
CC(=O)OC1CC2CC1N(CC(=O)Nc1ccc(C(=O)c3ccccc3)cc1)C2 (stereo not drawn) [Compound 231, Acetic acid 2-[(4-benzoyl-phenylcarbamoyl)-methyl]-2-aza-bicyclo[2.2.1]hept-6-yl ester] | 67 | 74 | – | –
CC(C)(C)OC(=O)NC1CCN(CC(=O)Nc2ccc(C3CCCCC3)cc2)C1 (stereo not drawn) [Compound 194, {1-[(4-Cyclohexyl-phenylcarbamoyl)-methyl]-pyrrolidin-3-yl}-carbamic acid tert-butyl ester] | 37 | 35 | – | –
N-(4-Cyclohexyl-phenyl)-2-(3-ethylamino-pyrrolidin-1-yl)-acetamide [Compound 196] | 43 | 49 | – | –
O=C(CN1CCC(O)(Cc2ccccc2)CC1)Nc1ccc(-c2ccccc2)cc1 [Compound 315, 2-(4-Benzyl-4-hydroxy-piperidin-1-yl)-N-biphenyl-4-yl-acetamide; hydrochloride] | – | – | 800 | 2000

Molecule | IC50 ([1]; [125I]PYY binding) [nM] | IC50 ([2]; [125I]PYY binding) [nM] | IC50 ([1]; [125I]PYY) [nM] | IC50 ([2]; [125I]PYY) [nM]
CN(C(=O)OC(C)(C)C)C1CCN(CC(=O)Nc2ccc(C(=O)c3ccccc3)cc2)C1 (stereo not drawn) [Compound 225, {1-[(4-Benzoyl-phenylcarbamoyl)-methyl]-pyrrolidin-3-yl)-methyl-carbamic acid tert-butyl ester] | 320 | 190 | – | –
CC(=O)OC1CC2CC1N(CC(=O)Nc1ccc(C3CCCCC3)cc1)C2 (stereo not drawn) [Compound 221, Acetic acid 2-[(4-cyclohexyl-phenylcarbamoyl)-methyl]-2-aza-bicyclo[2.2.1]hept-6-yl ester] | 29 | 29 | – | –
COc1cc(CCNCC(=O)Nc2ccc(C(=O)c3ccccc3)cc2)ccc1O [Compound 202, N-(4-Benzoyl-phenyl)-2-[2-(4-hydroxy-3-methoxy-phenyl)-ethylamino]-acetamide] | 58 | 53 | – | –
O=C(CN1CCC(NC(=O)C(F)(F)F)C1)Nc1ccc(C(=O)c2ccccc2)cc1 (stereo not drawn) [Compound 207] | 48 | 50 | – | –
CCNC1CCN(CC(=O)Nc2ccc(C(=O)c3ccccc3)cc2)C1 (stereo not drawn) [Compound 206, N-(4-Benzoyl-phenyl)-2-(3-ethylamino-pyrrolidin-1-yl)-acetamide] | 42 | 48 | – | –
CC(C)(C)OC(=O)NC1CCN(CC(=O)Nc2ccc(C3CCCCC3)cc2)C1 (stereo not drawn) [Compound 195, {1-[(4-Cyclohexyl-phenylcarbamoyl)-methyl]-pyrrolidin-3-yl}-carbamic acid tert-butyl ester] | 26 | 26 | – | –
O=C(CNCCCn1ccnc1)Nc1ccc(C(=O)c2ccccc2)cc1 [Compound 244, N-(4-Benzoyl-phenyl)-2-(3-imidazol-1-yl-propylamino)-acetamide] | 670 | 3000 | – | –
O=C(CNCc1ccc(C(=O)O)cc1)Nc1ccc(C(=O)c2ccccc2)cc1 [Compound 222, 4-({[(4-Benzoyl-phenylcarbamoyl)-methyl]-amino}-methyl)-benzoic acid] | > 10000 | > 10000 | – | –
O=C(CNCC1CC1)Nc1ccc(C2CCCCC2)cc1 [Compound 174, N-(4-Cyclohexyl-phenyl)-2-(cyclopropylmethyl-amino)-acetamide] | 610 | 840 | – | –
C=CCC(NCC(=O)Nc1ccc(C(=O)c2ccccc2)cc1)C(=O)O (stereo not drawn) [Compound 230, 2-{[(4-Benzoyl-phenylcarbamoyl)-methyl]-amino}-pent-4-enoic acid] | 810 | 2500 | – | –
O=C(CNc1c(I)cc(C(=O)O)cc1I)Nc1ccc(C2CCCCC2)cc1 [Compound 165, 4-{[(4-Cyclohexyl-phenylcarbamoyl)-methyl]-amino)-3,5-diiodo-benzoic acid anion] | 1100 | 700 | – | –
C#CC(C)(C)NCC(=O)Nc1ccc(C(=O)c2ccccc2)cc1 [Compound 223, N-(4-Benzoyl-phenyl)-2-(1,1-dimethyl-prop-2-ynylamino)-acetamide] | 540 | 1400 | – | –
CCNC1CCN(CC(=O)Nc2ccc(C3CCCCC3)cc2)C1 (stereo not drawn) [Compound 199, N-(4-Cyclohexyl-phenyl)-2-(3-ethylamino-pyrrolidin-1-yl)-acetamide] | 820 | 2400 | – | –
CNC1CCN(CC(=O)Nc2ccc(C3CCCCC3)cc2)C1 (stereo not drawn) [Compound 198, N-(4-Cyclohexyl-phenyl)-2-(3-methylamino-pyrrolidin-1-yl)-acetamide] | 1000 | 1300 | – | –
O=C(O)CC(NCC(=O)Nc1ccc(C2CCCCC2)cc1)C(F)(F)F (stereo not drawn) [Compound 180, 3-{[(4-Cyclohexyl-phenylcarbamoyl)-methyl]-amino}-4,4,4-trifluoro-butyric acid] | 170 | 120 | – | –
N#CCNCC(=O)Nc1ccc(C(=O)c2ccccc2)cc1 [Compound 211, N-(4-Benzoyl-phenyl)-2-(cyanomethyl-amino)-acetamide] | 1300 | 1000 | – | –
